Data published in patent publication US9006487B2, “Amine-containing lipids and uses thereof” (Massachusetts Institute of Technology, priority 2005, dated 2015).
“And” between values parts separate entries of the source, which are not always exact repeats. Equal entries are not always repeated.

System: cos-7 cells
Experiment: DNA transfection: luciferase expression relative to Lipofectamine 2000
Assay type: cell-based
Details: 300 ng Luciferase DNA per well, luciferase assay after 48 hours
Experimental: 14,000 cos-7 cells (ATCC, Manassas, Va.) were seeded into each well of a solid white or clear 96 well plate (Corning-Costar, Kennebunk, Me.) and allowed to attached overnight in growth medium, composed of: 500 ml phenol red minus DMEM, 50 ml heat inactivated FBS, 5 ml penicillin/streptomycin (Invitrogen, Carlsbad, Calif.).
A small liquot of lipid was tranferred to an Eppendorf tube. Based on the mass of the lipid in the tube, sterile 25 mM sodium acetate buffer was added to each tube to yield a concentration of 60 mg/ml. The resulting mixture was vortexed for approximately 20 minutes until the lipid was fully dissolved. DNA was prepared based on 300 ng DNA per well of a 96-well plate. 291 μg of Lc DNA was dissolved in 9210 μl of 25 mM sodium acetate buffer. Aliquots of 30 μl of DNA solution were added to each well expect for the last column which was reserved for the Lipo2000 standard. For the last column of the plate, 61 μg of DNA was added to 1940 μl Optimem. 150 μl of media/Optimem was added to each well of plates. 50 μl of lipid solution was aliquoted into wells of robot plate. The following amounts were aliquoted to obtain the correct ratios of DNA to lipid:
In quadruplicate, 30 μl of lipid was aliquoted onto DNA in four rows for each ratio. For the Lipo2000 control (2.5 w/w ratio to DNA), 152.5 μg of Lipo sample was aliquoted into 1847.5 μl of Optimem. 30 μl of this solution was aliquoted onto DNA in the Optimem in the last columns of each plate. The plates were incubated for 15-20 minutes, and then 36.5 μl of lipid+DNA complexes was transferred into 150 μl of media/Optimem, then add to cells. The media was aspirated off the cells, and 105 μl of the lipid/DNA/media/Optimem solution was added to the cells. The luciferase assay was performed after 48 hours.
Luminescence was analyzed using bright-glo assay kits (Promega). Briefly, 100 μl of bright-glo solution was added to each well of the microtiter plate containing media and cells. Luminescence was measured using a Mithras Luminometer (Berthold, Oak Ridge, Tenn.). In some cases, a neutral density filter (Chroma, Brattleboro, Vt.) was used to prevent saturation of the luminometer. A standard curve for Luciferase was generated by titration of Luciferase enzyme (Promega) into growth media in white microtiter plates. Luciferase in ng per well are calculated for each of the lipids at 2.5 w/w, 5 w/w, 10 w/w, 15 w/w, 20 w/w, and 25 w/w lipid to DNA based on the standard curve.
The table below summarizes the data as a % of the luciferase activity obtained from the use of Lipofectamine 2000. The table indicates the best lipids for transfection.

Compound | Luciferase expression as a percentage of that achieved using Lipofectamine 2000 (lipid/DNA 2.5 w/w) | Luciferase expression as a percentage of that achieved using Lipofectamine 2000 (lipid/DNA 5 w/w) | Luciferase expression as a percentage of that achieved using Lipofectamine 2000 (lipid/DNA 10 w/w) | Luciferase expression as a percentage of that achieved using Lipofectamine 2000 (lipid/DNA 15 w/w) | Luciferase expression as a percentage of that achieved using Lipofectamine 2000 (lipid/DNA 20 w/w) | Luciferase expression as a percentage of that achieved using Lipofectamine 2000 (lipid/DNA 25 w/w)
CCCCCCCCCCCCCCCOC(=O)CCN(CCOCC)CCC(=O)OCCCCCCCCCCCCCCC [LG11] | 0.0% | 0.0% | 0.0% | 0.0% | 0.0% | 0.0%
CCCCCCCCCCCCOC(=O)CCN(CCN(CCC(=O)OCCCCCCCCCCCC)C(C)C)C(C)C [LD62] | 0.4% | 0.4% | 0.4% | 0.4% | 0.4% | 0.5%
CCCCCCCCCCOC(=O)CCN(CC)CCCN(CC)CCC(=O)OCCCCCCCCCC [LB64] | 0.1% | 0.1% | 0.2% and 0.1% | 0.1% | 0.1% | 0.2% and 0.1%
CCCCCCCCCCCCCCCCCCOC(=O)CCN(CCOCC)CCC(=O)OCCCCCCCCCCCCCCCCCC [LH11] | 0.0% | 0.0% | 0.0% | 0.0% | 0.0% | 0.0%
CCCCCCCCCCCCCCCOC(=O)CCN(CCCN(CCO)CCO)CCC(=O)OCCCCCCCCCCCCCCC [LG87] | 14.5% | 7.5% | 9.2% | 10.4% | 5.9% | 4.7%
CCCCCCCCCCCCCCCOC(=O)CC[N+](C)(CCCOC)CCC(=O)OCCCCCCCCCCCCCCC.[I-] [QG1] | 0.4% | 0.5% | 0.4% | 0.4% | 0.3% | 0.3%
CCCCCCCCCCOC(=O)CCN(CCC(=O)OCCCCCCCCCC)CCC1OCCO1 [LB6] | 0.1% | 0.1% | 0.1% | 0.1% | 0.1% | 0.1%
CCCCCCCCCCCCCCCCCCOC(=O)CCN(CCC(=O)OCCCCCCCCCCCCCCCCCC)C[C@H](C)O [LH22] | 0.0% | 0.0% | 0.0% | 0.0% | 0.0% | 0.0%
CCCCCCCCCCCCCCCOC(=O)CCN(CCC(=O)OCCCCCCCCCCCCCCC)CC(OC)OC [LG13] | 0.0% | 0.0% | 0.0% | 0.0% | 0.0% | 0.0%
CCCCCCCCCCOC(=O)CCN(CCC(=O)OCCCCCCCCCC)CCC1CCCN1C (stereo not drawn) [LB77] | 0.1% | 0.1% | 0.1% | 0.2% | 0.1% | 0.3%
CCCCCCCCCCOC(=O)CC[N+](C)(CCC(=O)OCCCCCCCCCC)CCC1OCCO1.[I-] [QB6] | 0.0% | 0.0% | 0.0% | 0.0% | 0.0% | 0.0%
CCCCCCCCCCCCCCCOC(=O)CCN(CCC(=O)OCCCCCCCCCCCCCCC)CC(C)O (stereo not drawn) [LG21] | 0.1% | 0.1% | 0.1% | 0.2% | 0.2% | 0.4%
CCCCCCCCCCCCOC(=O)CCN(C)CCN(CCC(=O)OCCCCCCCCCCCC)CCC(=O)OCCCCCCCCCCCC [LD95] | 1.2% | 19.5% | 3.6% | 9.1% | 9.4% | 5.9%
CCCCCCCCCCCCCCOC(=O)CCN(CCOC)CCC(=O)OCCCCCCCCCCCCCC [LF10] | 0.1% | 0.1% | 0.0% | 0.0% | 0.1% | 0.1%
CCCCCCCCCCCCCCOC(=O)CCN(CCCN(CC)CC)CCC(=O)OCCCCCCCCCCCCCC [LF81] | 0.5% | 1.6% | 1.5% | 4.9% | 4.6% | 4.0%
CCCCCCCCCCCCCOC(=O)CCN(CCOCCO)CCC(=O)OCCCCCCCCCCCCC [LE31] | 1.0% | 1.0% | 0.9% | 2.5% | 2.9% | 9.5%
CCCCCCCCCCCCCCCOC(=O)CCN(CCC(=O)OCCCCCCCCCCCCCCC)CC(O)CO (stereo not drawn) [LG24] | 2.0% | 3.3% | 4.8% | 11.2% | 16.4% | 32.5%
CCCCCCCCCCOC(=O)CCN(CCC(=O)OCCCCCCCCCC)CC1COC(C)(C)O1 (stereo not drawn) [LB7] | 0.1% | 0.1% | 0.1% | 0.1% | 0.1% | 0.2%
